The subject of one data set is Kv7.3/5, Kv7.4. The settings on record: positive control, Kv7.3/5, Kv7.4 assay; read-out: Known IC50; cited from earlier work.
A short description of data set [1]: Metabolic stability in human liver microsomes (HLM Clint). It counts as in vitro ADME. (In general: Liver microsomes are a subcellular fraction often used to study metabolism.)
Data set [2] deals with T1, hERG (Homo sapiens (Human), UniProt Q12809). The data set is described as follows: hERG FLIPR Potassium assay, CHO/hERG cell line. The following applies: at the concentration given as hERG IC50 bound. For orientation: Block of hERG is tested as a sign of cardiac risk.
Data set [3] in a line: Solubility assay (kinetic solubility). In kind it is physicochemical. On the set-up: Kinetic Sol.: unit not given here.
Data set [4] can be described thus: LogD measurement at pH 7.4. In kind it is physicochemical.
Data set [5] relates to NGF-treated rat DRG neurons. The data set is described as follows: Neuropathic model in rat DRGs (NGF pretreatment, capsaicin induced tetanic burst). In kind it is cell-based. The following applies: NGF 100 ng/ml pretreatment, compound at 100 nM. As for the experimental part:
FIG. 8B presents representative data obtained in assays in which neurons were pretreated with NGF 100 ng/ml for 4-5 days. NGF Non-treated rat DRGs were stimulated by repeated capsaicin application with and without 421-6 at 2 μM (top panel) or 100 nM (Middle panel).
DRGs treated with NGF show tetanic action potential burst in response to CAP application, mimicking neuropathic like response. See, Background Art FIG. 8A. NGF enhances TRPV1 function using Calcium-dependent fluorescence, F, relative to maximal fluorescence, Fmax, as a function of time from a single HEK293 cell stably transfected with TrkA and transiently transfected with hTRPV1. Pulses of capsaicin (100 nM, applied as shown at top) elicited submaximal increases in [Ca]i. Exposure to NGF (100 ng/ml, see top) enhanced the capsaicin induced calcium increase. Arrows show responses used for calculation of sensitization ratio.

Data set [6] has as its system primary neonatal rat DRG neurons. The data set is described as follows: Rat DRG neuron firing, current-induced and capsaicin-induced (current clamp). In kind it is cell-based. An excerpt:
rDRGs isolation and primary cell culture: Briefly, rat DRGs from all spinal levels were carefully removed and collected in HBSS on ices, connective tissue of the epineurium surrounding the ganglion was removed and cells were dissociated using Collagenase-II and trypsin dissociation solutions. DRGs were dissociated further, passed through glass Pasteur pipettes to obtain single cells. Then dissociation solution was changed to 5% FBS containing DRG neuronal culture medium and plated onto ECL coated 12 mm cover glass.
Additional rDRGs experiments were performed using Lonza primary neonatal rat (Sprague Dawley neonatal; P2,3) DRG neurons (R-DRG-505, Lonza) plated and cultured according to the manufacturer.
These cryopreserved DRG cells were prepared from freshly isolated and dissociated spinal cord dorsal root ganglia and comprise a normal distribution of neurons and glia (schwann cells).
Electrophysiology: Cells were used for electrophysiological recording in the 48 hours following rDRG isolation. Round small neurons (20-40 m in diameter) were selected for electrophysiology recordings, to select for small nociceptive neurons that propagate pain sensation in vivo and that are expressing both Kv7.2/3 and TRPV1 targets. Membrane excitability was monitored using current clamp. Positive current steps of different amplitude were injected (400 ms) to induce spikes trains before and following compound application.
The inhibitory potency of the newly designed compounds was studied on neuronal excitability in an experimental system of high physiological relevance, primary neonatal rat DRG neurons (Sprague Dawley neonatal; P2,3; R-DRG-505, Lonza). These cryopreserved DRG cells are prepared from freshly isolated and dissociated spinal cord dorsal root ganglia and comprise a normal distribution of neurons and glia (schwann cells).
The inhibitory potency was tested both on current-induced and Capsaicin-induced neuronal activity.

For data set [7], the target named is T2, hTRPV1 (Homo sapiens (Human), UniProt Q8NER1). The data set is described as follows: High content screen (HCS) Fluo-8 No Wash calcium flux assay, capsaicin activation, CHO cells expressing hTRPV1. The settings on record: CHO cells expressing hTRPV1, fluorescent HCS; read-out: TRPV1 IC50. In kind it is cell-based. In general terms: Calcium flux is commonly read through the fluorescence of an indicator in the cells.

Data set [8] concerns the target T1, hERG. The data set is described as follows: in vitro. The following applies: hamster, CHO cells that express human hERG.
In data set [9] the target is T1, hERG. Put plainly: cell-based.
The next data set addresses human Kv7.2/3 channels (Homo sapiens (Human), UniProt O43525+O43526). The data set is described as follows: High content screen (HCS) FLIPR Potassium (thallium flux) assay, CHO/hKv7.2/3 cell line. The following applies: head prints IC50; channel activation in CHO/hKv7.2/3, fluorescent HCS; read-out: Kv7.2/7.3 IC50. In kind it is cell-based. As for the experimental part:
Cell culture: […] To maintain the stability of human Kv7.2/7.3 expression antibiotic selection was added (Puromycin g/ml). High content screen (HCS) using FLIPR Potassium Assay Kit: FLIPR Potassium Assay Kit ([…] FLIPR Potassium Assay Explorer Kits, Molecular Devices) was used with the CHO/hKv7.2/3 cell line to screen molecules against the hKv7.2/7.3 ion channel target. The assay exploits the permeability of thallium ions (Tl+) through potassium (K^+) channels. In this assay, Tl+ indicator dye is used to produce a bright fluorescent signal upon the binding to Tl+ conducted through the potassium channels. The intensity of the Tl+ signal is proportional to the number of potassium channels in the open state. Therefore, it provides a functional indication of the potassium channel activity. To activate the voltage-gate potassium channels, the cells were stimulated with a mixture of K+ and Tl+ to depolarize the cell membrane. The fluorescence increase in the assay represents the influx of Tl+ into the cell specifically through the potassium channel, providing a functional read-out of hKv7.2/3 activity using a fluorescent plate reader coupled with injectors used to activate the channels. […] Tecan Spark reader plate injectors were primed with Tl+ (1 mM Tl2SO4) or Tl++K+ (1 mM Tl2SO4; 5 mM K2SO4) for channel activation and data correction. […]

In data set [10] the target is T2, hTRPV1. Put plainly: TRPV1 electrophysiology in CHO cells co-expressing hKv7.2/3 and hTRPV1. It counts as cell-based. The settings on record: also when co-applied with retigabine. From the text: To exemplify the functional coupling of Kv7.2/3 and TRPV1, stably expressing Kv7.2/3 cells were transfected with human TRPV1 and their response to current ramp to −40 mV (Kv activation) and capsaicin (TRPV1 activation) was examined electrophysiologically.

In the next data set the test system is human sensory neurons. Put plainly: Spontaneous activity of human sensory neurons differentiated from hNPCs. In kind it is cell-based. The settings on record: 5 μM, reversible. As to the method: Cell culture and differentiation: Human PSC-derived neural progenitor cells (Stem Cell Catalog No. 70901 and 70902) were cultured and expanded on Matrigel coated 6-wells plates, using neuronal progenitor medium containing: Neurobasal media supplemented by non-essential amino-acids, 1%; Glutamax, 1%; B27, 2%, FGF2, 20 ng/ml). hNPC were then plated onto PDL and Matrigel coated 12 mm coverglass at a density of about 50,000 cells/well of a 6 well, in DMEM/F12; 10% KSR; 1% P/S and A83-01 (2 M) from days 0-5. From days 0-9 the medium contained also CHIR99021 (6 μM). From Day 3-9 the medium included R04929097 (2 μM) and SU5402 (3 μM). From day 9 and onwards, the media change (Neurobasal Media contains: NT-3; BDNF; NGF; GDNF) was performed every other day by replacing only 50% of the media after CO2 equilibrating. […]
Electrophysiology: To characterize the neuronal properties with electrophysiology recordings, round small neurons (20-40 μm in diameter) were selected from day 31 and onwards. Cells were monitored for their polarized negative membrane potential and for their ability to evoke consistent spikes train responses to repeated positive current injections as a mark of achieving electrical maturation before testing the effect of the tested compounds on neuronal excitability. Membrane excitability was monitored using current clamp. […]

In brackets after ≈: the same amount, converted by molar mass. Where two headings read alike, the source gives them in different places. A value given as a limit tells only on which side of the number the result lay.

This is an account of results in patent US20240366536A1, “MODULATORS OF A POTASSIUM CHANNEL AND OF TRPV1 CHANNEL AND USES THEREOF” (Bsense Bio Therapeutics Ltd., priority 2022, published 2024).

As a reminder, the LogD is lipophilicity at a set pH, counting ionised and neutral species. The term microsomal CLint denotes the capacity of the preparation to metabolise the compound, expressed as a volume cleared per time. Usually inhibition stands for the drop in the measured response relative to a control, in per cent.

T1 sequence (Q12809 whole entry): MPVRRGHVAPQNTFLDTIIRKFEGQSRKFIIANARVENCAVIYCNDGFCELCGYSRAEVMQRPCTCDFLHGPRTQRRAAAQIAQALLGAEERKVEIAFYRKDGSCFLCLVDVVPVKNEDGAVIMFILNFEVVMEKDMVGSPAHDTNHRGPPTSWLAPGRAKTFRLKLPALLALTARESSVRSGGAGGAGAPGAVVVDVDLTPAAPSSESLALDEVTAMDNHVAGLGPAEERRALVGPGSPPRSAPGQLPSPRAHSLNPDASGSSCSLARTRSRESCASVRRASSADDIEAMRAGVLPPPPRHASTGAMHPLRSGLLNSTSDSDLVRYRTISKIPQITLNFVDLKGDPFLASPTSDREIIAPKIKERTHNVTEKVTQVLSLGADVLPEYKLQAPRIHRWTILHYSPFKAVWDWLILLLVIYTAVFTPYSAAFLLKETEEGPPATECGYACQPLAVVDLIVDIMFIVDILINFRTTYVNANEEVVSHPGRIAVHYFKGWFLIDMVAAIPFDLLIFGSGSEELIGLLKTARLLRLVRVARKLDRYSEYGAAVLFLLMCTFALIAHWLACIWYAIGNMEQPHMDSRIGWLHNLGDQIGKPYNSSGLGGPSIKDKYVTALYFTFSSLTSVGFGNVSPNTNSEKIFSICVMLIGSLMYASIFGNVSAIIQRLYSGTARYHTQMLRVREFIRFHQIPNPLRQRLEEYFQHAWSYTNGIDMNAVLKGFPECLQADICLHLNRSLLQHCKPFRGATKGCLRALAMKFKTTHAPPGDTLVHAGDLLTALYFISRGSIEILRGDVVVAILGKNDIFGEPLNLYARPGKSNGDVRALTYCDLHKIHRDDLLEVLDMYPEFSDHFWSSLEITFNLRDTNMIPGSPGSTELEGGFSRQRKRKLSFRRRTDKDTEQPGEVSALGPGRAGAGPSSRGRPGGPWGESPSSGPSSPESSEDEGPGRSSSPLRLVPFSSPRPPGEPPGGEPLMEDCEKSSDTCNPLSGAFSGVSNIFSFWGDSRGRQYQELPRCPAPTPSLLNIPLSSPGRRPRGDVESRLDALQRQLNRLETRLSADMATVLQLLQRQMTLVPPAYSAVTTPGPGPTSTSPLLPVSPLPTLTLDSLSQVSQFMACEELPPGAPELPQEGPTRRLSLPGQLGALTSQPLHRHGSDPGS
T2 sequence (Q8NER1 whole entry): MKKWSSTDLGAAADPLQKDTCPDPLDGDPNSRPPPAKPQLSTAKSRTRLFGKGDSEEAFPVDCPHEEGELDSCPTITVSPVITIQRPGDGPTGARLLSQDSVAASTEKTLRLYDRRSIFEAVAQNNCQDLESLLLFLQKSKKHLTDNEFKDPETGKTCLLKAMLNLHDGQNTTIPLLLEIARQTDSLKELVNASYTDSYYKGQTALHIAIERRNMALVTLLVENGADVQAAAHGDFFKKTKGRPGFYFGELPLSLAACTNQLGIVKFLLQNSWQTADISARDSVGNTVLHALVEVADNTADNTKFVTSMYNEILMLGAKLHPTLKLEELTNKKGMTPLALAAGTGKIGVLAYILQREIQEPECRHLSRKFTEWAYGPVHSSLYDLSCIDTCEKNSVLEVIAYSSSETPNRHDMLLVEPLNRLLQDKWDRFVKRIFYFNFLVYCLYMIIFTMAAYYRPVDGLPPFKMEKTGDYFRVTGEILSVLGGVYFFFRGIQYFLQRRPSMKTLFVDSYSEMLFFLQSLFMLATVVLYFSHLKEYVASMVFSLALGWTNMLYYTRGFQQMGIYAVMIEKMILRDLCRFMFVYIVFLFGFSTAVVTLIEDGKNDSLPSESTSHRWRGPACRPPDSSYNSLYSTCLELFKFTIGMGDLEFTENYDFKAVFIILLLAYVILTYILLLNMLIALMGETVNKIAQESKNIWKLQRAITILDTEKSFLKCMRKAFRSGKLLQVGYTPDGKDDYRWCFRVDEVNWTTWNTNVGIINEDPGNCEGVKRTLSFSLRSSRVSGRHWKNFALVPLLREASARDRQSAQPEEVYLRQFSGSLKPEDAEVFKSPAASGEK

For the molecule `CCOC(=O)Nc1ccc(NCc2ccc(F)cc2)cc1N` [Retigabine, N-(2-amino-4-(4-fluorobenzylamino)-phenyl)carbamic acid ethyl ester], the IC50 with Kv7.3/5, Kv7.4 is 1.5 to 5 µM.

Turning to `CC(C)c1cc(Cl)cc(Cl)c1C(=O)c1ccc(F)c(CC(=O)NCC(C)(C)O)c1` [Compound 417-4], the “HLM Clint” value in [1] stood at 91.84 µL/min/mg. The “hERG, percent in parentheses beside the IC50 bound” value at hERG [2] was “(0%)”. Moreover, the “Kinetic Sol.” value in [3] turned out to be 66. This molecule gave a LogD in data set [4] of 4.08.

Turning to `O=C(Cc1cncc(-n2cc(Cl)c3cc(Cl)cc(Cl)c32)c1)N[C@@H]1COC[C@H]1O` [Compound 661], the “HLM Clint” value in [1] came out at 72 µL/min/mg. For the same molecule, on hERG [2], the “hERG, percent in parentheses beside the IC50 bound” value is on record as “(0%)”. In addition, the “Kinetic Sol.” value in [3] worked out at 40. In [4], this molecule displayed a LogD of 3.55.

`CC(C)c1cc(Cl)cc(Cl)c1C(O)c1ccc(F)c(CC(=O)NCC(C)(C)O)c1` (stereo not drawn) [Compound 417]: the “HLM Clint” value in [1] turned out to be 89.1 µL/min/mg. Further, the “hERG, percent in parentheses beside the IC50 bound” value on hERG [2] is “(0%)”.

For `O=C(Cc1cncc(-n2cc(Cl)c3cc(Cl)cc(Cl)c32)c1)NCCO` [Compound 649], the “HLM Clint” value in data set [1] came out at 27.3 µL/min/mg. Besides, the “Kinetic Sol.” value in data set [3] was 10. In data set [4], the pH-dependent lipophilicity (LogD) came to 4.19.

`CC(C)c1cc(Cl)cc(Cl)c1C(=O)c1ccc(F)c(CC(=O)NCC2(O)CCC2)c1` [Compound 569]: the “HLM Clint” value in data set [1] worked out at 120 µL/min/mg. Moreover, in [3], the “Kinetic Sol.” value turned out to be 27. Moreover, the pH-dependent lipophilicity (LogD) in data set [4] is reported as 4.47.

As to `Cc1cn(-c2ccc(F)c(CC(=O)NCC(C)(C)O)c2)c2c(Cl)cc(Cl)cc12` [Compound 421-6], the “capsaicin induced tetanic action potential burst” value in [5] is on record as “alleviates”. Also, in [6] (100 nM), the “inhibition of current induced AP activity” value turned out to be 10.1±3.4%. In data set [6] (500 nM), the “inhibition of current induced AP responses” value came to 51.2±8.4% and the “inhibition of the capsaicin induced AP response” value stood at 86.5±8.4%. In data set [6] (2 μM), the “inhibition of AP response to Capsaicin activation” value amounted to 97.9±2.1% and the “inhibition of AP response to current activation” value is 77.7±5.6%. In addition, at hERG [2], the “hERG, percent in parentheses beside the IC50 bound” value was “(0%)”.

Regarding `CC(C)c1cc(Cl)cc(Cl)c1C(O)c1ccc(F)c(CC(=O)NCC2(O)CCC2)c1` (racemic) [Compound 533], the IC50 at hTRPV1 [7] is 21.2 µM; against hERG [9], over 50 µM; at human Kv7.2/3 channels, 1.5 µM. For the same molecule, the “capsaicin-evoked rat DRGs spiking” value in data set [6] (100 nM) is “inhibition is gained”. Moreover, the “current-evoked rat DRGs spiking” value in data set [6] (100 nM) is given as “inhibition decreases”. Moreover, the microsomal CLint in [1] was 658 µL/min/mg. The same molecule displayed an inhibition at 1.5 h, 50 µM on hERG [8] of 0%. Besides, the solubility kinetic at 10 min in data set [3] (HHBS buffer with 0.2% DMSO, aqueous with cosolvent or surfactant or cyclodextrin, kinetic from dmso stock, read-out: Kinetic Sol.) came out at 41 µM (≈ 18.6 µg/mL). Besides, in data set [4] (lipid phase / aqueous phase, read-out: LogD), the pH-dependent lipophilicity (LogD) is 4.36.

For the molecule `COC[C@@H](CO)NC(=O)Cc1cc(Sc2c(Cl)cc(Cl)cc2C(C)C)ccc1F` [Compound 414], the “HLM Clint” value in data set [1] was 686 µL/min/mg. At hERG [2], the “hERG, percent in parentheses beside the IC50 bound” value is on record as “(0%)”.

On to `CC(C)(C)c1ccc(/C=C/C(=O)Nc2ccc3c(c2)OCCO3)cc1` [AMG9810, reference compound], for which, in [6] (50 nM), the “reduction of Capsaicin evoked firing” value is listed as “about 50%”. Besides, on hTRPV1 [10], the “TRPV1-inhibition potency gain in cells co-expressing hKv7.2/3 and hTRPV1” value was “failure to gain TRPV1-inhibition potency”.

In the case of `CC(C)c1cc(Cl)cc(Cl)c1C(=O)c1ccc(F)c(CC(=O)NCC2(O)CC2)c1` [Compound 573], in data set [1], the “HLM Clint” value came to 441 µL/min/mg. Moreover, the “Kinetic Sol.” value in data set [3] is reported as 24. Also, the pH-dependent lipophilicity (LogD) in [4] was determined as 4.34.

Turning to `O=C(Cc1cncc(-n2cc(Cl)c3cc(Cl)cc(Cl)c32)c1)N[C@H]1COC[C@@H]1O` [Compound 663], in [1], the “HLM Clint” value was 53.6 µL/min/mg. Moreover, in data set [3], the “Kinetic Sol.” value was determined as 26. In data set [4], this molecule had a LogD of 3.52.

On to `COC[C@@H](CO)NC(=O)Cc1cc(Sc2c(Cl)cc(F)cc2C(C)C)ccc1F` [Compound 415], for which the spontaneous neuronal activity result with human sensory neurons is listed as “significantly reduced”. Moreover, in data set [1], the “HLM Clint” value came out at 839 µL/min/mg. In addition, the “hERG, percent in parentheses beside the IC50 bound” value on hERG [2] is listed as “(0%)”. Moreover, the “Kinetic Sol.” value in data set [3] turned out to be 26.7. Moreover, the LogD in data set [4] worked out at 4.25.
